According to ChEMBL document CHEMBL4765365, “Design, synthesis and antitumour evaluation of pyrrolo[1,2-f]-phenanthridine and dibenzo[f,h]pyrrolo[1,2-b]isoquinoline derivatives” (Eur J Med Chem, 2020):

Assays:
NCI-H460 [1] = test: Induction of cell cycle arrest in human NCI-H460 cells assessed as G2/M phase at 3 uM measured at 0 hrs by PI staining based flow cytometry analysis (reference value: 25.2 +/- 4 %); assay type: functional
NCI-H460 [2] = test: Induction of cell cycle arrest in human NCI-H460 cells assessed as G0 phase at 0.75 uM measured at 0 hrs by PI staining based flow cytometry analysis (reference value: 1.3 +/- 0.9 %); assay type: functional
HCT-116 [3] = test: Induction of cell cycle arrest in human HCT-116 cells assessed as G2/M phase at 1.5 uM incubated for 12 hrs by PI staining based flow cytometry analysis (reference value: 21.7 +/- 1.9 %); assay type: functional
HCT-116 [4] = test: Induction of cell cycle arrest in human HCT-116 cells assessed as G2/M phase at 0.75 uM measured at 0 hrs by PI staining based flow cytometry analysis (reference value: 28.9 +/- 1.4 %); assay type: functional
NCI-H460 [5] = test: Induction of cell cycle arrest in human NCI-H460 cells assessed as G1 phase at 0.75 uM incubated for 12 hrs by PI staining based flow cytometry analysis (reference value: 66 +/- 10 %); assay type: functional
NCI-H460 [6] = test: Induction of cell cycle arrest in human NCI-H460 cells assessed as G1 phase at 0.75 uM incubated for 24 hrs by PI staining based flow cytometry analysis (reference value: 56.8 +/- 7.6 %); assay type: functional
NCI-H460 [7] = test: Induction of cell cycle arrest in human NCI-H460 cells assessed as S phase at 0.75 uM measured at 0 hrs by PI staining based flow cytometry analysis (reference value: 12.2 +/- 2.8 %); assay type: functional
HCT-116 [8] = test: Induction of cell cycle arrest in human HCT-116 cells assessed as G0 phase at 1.5 uM incubated for 36 hrs by PI staining based flow cytometry analysis (reference value: 2.5 +/- 0.8 %); assay type: functional
NCI-H460 [9] = test: Induction of cell cycle arrest in human NCI-H460 cells assessed as G2/M phase at 0.75 uM incubated for 36 hrs by PI staining based flow cytometry analysis (reference value: 25 +/- 1.2 %); assay type: functional
HCT-116 [10] = test: Induction of cell cycle arrest in human HCT-116 cells assessed as G2/M phase at 0.375 uM incubated for 36 hrs by PI staining based flow cytometry analysis (reference value: 23.6 +/- 1 %); assay type: functional
[11] = Cytotoxicity against human PacaS1 cells assessed as reduction in cell viability incubated for 72 hrs by XTT assay; assay type: functional, cell-based; conditions: PacaS1, 72 h
NCI-H460 [12] = test: Cytotoxicity against human NCI-H460 cells assessed as reduction in cell viability incubated for 72 hrs by XTT assay; assay type: functional, cell-based; conditions: NCI-H460, 72 h
HCT-116 [13] = test: Induction of cell cycle arrest in human HCT-116 cells assessed as G0 phase at 1.5 uM incubated for 12 hrs by PI staining based flow cytometry analysis (reference value: 2.2 +/- 1.7 %); assay type: functional
HCT-116 [14] = test: Induction of cell cycle arrest in human HCT-116 cells assessed as G1 phase at 0.75 uM incubated for 12 hrs by PI staining based flow cytometry analysis (reference value: 53.6 +/- 4.5 %); assay type: functional
NCI-H460 [15] = test: Induction of apoptosis in human NCI-H460 cells assessed as necrotic cells at 1.5 uM incubated for 48 hrs by annexin V-FITC and PI staining based flow cytometry analysis (reference value: 0.7 %); assay type: functional
NCI-H460 [16] = test: Induction of cell cycle arrest in human NCI-H460 cells assessed as G1 phase at 1.5 uM incubated for 24 hrs by PI staining based flow cytometry analysis (reference value: 56.8 +/- 7.6 %); assay type: functional
CCRF-CEM = test: Cytotoxicity against human CCRF-CEM cells assessed as reduction in cell viability incubated for 72 hrs by XTT assay; assay type: functional, cell-based
HCT-116 [17] = test: Induction of cell cycle arrest in human HCT-116 cells assessed as S phase at 1.5 uM measured at 0 hrs by PI staining based flow cytometry analysis (reference value: 12.4 +/- 6.2 %); assay type: functional
CEM-VLB = test: Cytotoxicity against human CEM-VLB cells assessed as reduction in cell viability incubated for 72 hrs by XTT assay; assay type: functional, cell-based
NCI-H460 [18] = test: Induction of apoptosis in human NCI-H460 cells assessed as viable cells at 3 uM incubated for 48 hrs by annexin V-FITC and PI staining based flow cytometry analysis (reference value: 90.1 %); assay type: functional; conditions: read-out: Activity
NCI-H460 [19] = test: Induction of cell cycle arrest in human NCI-H460 cells assessed as G0 phase at 3 uM incubated for 24 hrs by PI staining based flow cytometry analysis (reference value: 1.6 +/- 0.6 %); assay type: functional
NCI-H460 [20] = test: Induction of cell cycle arrest in human NCI-H460 cells assessed as G1 phase at 0.75 uM incubated for 36 hrs by PI staining based flow cytometry analysis (reference value: 57.9 +/- 3.6 %); assay type: functional
HCT-116 [21] = test: Induction of cell cycle arrest in human HCT-116 cells assessed as G2/M phase at 0.75 uM incubated for 24 hrs by PI staining based flow cytometry analysis (reference value: 9.3 +/- 0.8 %); assay type: functional
HCT-116 [22] = test: Induction of cell cycle arrest in human HCT-116 cells assessed as S phase at 0.75 uM measured at 0 hrs by PI staining based flow cytometry analysis (reference value: 12.4 +/- 6.2 %); assay type: functional
NCI-H460 [23] = test: Induction of cell cycle arrest in human NCI-H460 cells assessed as G2/M phase at 3 uM incubated for 36 hrs by PI staining based flow cytometry analysis (reference value: 25 +/- 1.2 %); assay type: functional
HCT-116 [24] = test: Induction of cell cycle arrest in human HCT-116 cells assessed as G0 phase at 1.5 uM incubated for 24 hrs by PI staining based flow cytometry analysis (reference value: 12.5 +/- 5.4 %); assay type: functional
NCI-H460 [25] = test: Induction of cell cycle arrest in human NCI-H460 cells assessed as S phase at 3 uM incubated for 24 hrs by PI staining based flow cytometry analysis (reference value: 11.7 +/- 6.1 %); assay type: functional
HCT-116 [26] = test: Induction of cell cycle arrest in human HCT-116 cells assessed as G0 phase at 0.375 uM measured at 0 hrs by PI staining based flow cytometry analysis (reference value: 0.7 +/- 0.2 %); assay type: functional
[27] = Solubility in mixture of ethanol/PEG400/Cremophor EL/0.9% saline; assay type: physicochemical; conditions: buffer
NCI-H460 [28] = test: Induction of apoptosis in human NCI-H460 cells assessed as late apoptotic cells at 6 uM incubated for 48 hrs by annexin V-FITC and PI staining based flow cytometry analysis (reference value: 7.3 %); assay type: functional
HCT-116 [29] = test: Induction of cell cycle arrest in human HCT-116 cells assessed as G0 phase at 1.5 uM measured at 0 hrs by PI staining based flow cytometry analysis (reference value: 0.7 +/- 0.2 %); assay type: functional
NCI-H460 [30] = test: Induction of apoptosis in human NCI-H460 cells assessed as early apoptotic cells at 1.5 uM incubated for 48 hrs by annexin V-FITC and PI staining based flow cytometry analysis (reference value: 2 %); assay type: functional
NCI-H460 [31] = test: Induction of cell cycle arrest in human NCI-H460 cells assessed as S phase at 1.5 uM incubated for 36 hrs by PI staining based flow cytometry analysis (reference value: 7.6 +/- 3.9 %); assay type: functional

- solubility [27]: Soluble
Compound: OCc1cn2c3ccccc3c3ccccc3c2c1CO
- Activity (NCI-H460 [1]): 24.6%
- Activity (NCI-H460 [2]): 1.8%
- Activity (HCT-116 [3]): 24%
- Activity (HCT-116 [4]): 28.5%
- Activity (NCI-H460 [5]): 53%
- Activity (NCI-H460 [6]): 54%
- Activity (NCI-H460 [7]): 12.6%
- Activity (HCT-116 [8]): 18.2%
- Activity (NCI-H460 [9]): 20.9%
- Activity (HCT-116 [10]): 23.4%
- IC50 [11]: 1410 nM
- IC50 (NCI-H460 [12]): 3140 nM
- Activity (HCT-116 [13]): 1.9%
- Activity (HCT-116 [14]): 51.6%
- Activity (NCI-H460 [15]): 0.5%
- Activity (NCI-H460 [16]): 56.3%
- IC50 (CCRF-CEM): 370 nM
- Activity (HCT-116 [17]): 12.6%
- IC50 (CEM-VLB): 380 nM
- viability at 3 µM (NCI-H460 [18]): 36.2%
- Activity (NCI-H460 [19]): 5.2%
- Activity (NCI-H460 [20]): 67.8%
- Activity (HCT-116 [21]): 25.6%
- Activity (HCT-116 [22]): 12.6%
- Activity (NCI-H460 [23]): 25.6%
- Activity (HCT-116 [24]): 6.4%
- Activity (NCI-H460 [25]): 10.9%
- Activity (HCT-116 [26]): 0.6%
- Activity (NCI-H460 [28]): 55.8%
- Activity (HCT-116 [29]): 2.2%
- Activity (NCI-H460 [30]): 3.6%
- Activity (NCI-H460 [31]): 3.5%
